Consider 16 compounds from patent US10221173B2, “Chemical compounds” (AstraZeneca AB, priority 2017, dated 2019).

Data set [1] has as its target recombinant human Estrogen Receptor alpha ligand binding domain (ER alpha-LBD (GST)) (Homo sapiens (Human), UniProt P03372). The data set can be described thus: ERα binding assay (LanthaScreen TR-FRET competition). (Time-resolved FRET reads energy transfer from a long-lived donor to a nearby acceptor.)
Data set [2] addresses Estrogen Receptor (ERα) in MCF-7 cells (Homo sapiens (Human), UniProt P03372). Description: MCF-7 ER down-regulation assay (immuno-fluorescence). The format is cell-based. Conditions: for % downregulation (in brackets): maximum downregulation.
A short description of data set [3]: Log D (shake flask, 1-octanol/aqueous buffer). Format: physicochemical. Conditions: 1-octanol/aqueous buffer, pH 7.4, pH 7.4.
A short description of data set [4]: Thermodynamic solubility (shake-flask). Format: physicochemical. Particulars: aqueous phosphate buffer, 25 °C, pH 7.4, aqueous buffer, thermodynamic from solid, phosphate buffer pH 7.4, 24 hours.
Data set [5] is described as follows: Human plasma protein binding (equilibrium dialysis). Format: in vitro ADME. On the technique in general: In equilibrium dialysis only unbound substance equilibrates across the membrane.
Experimental: The automated equilibrium dialysis assay in human plasma uses the RED (Rapid Equilibrium Dialysis) Device and sample handling. The assay generally runs over two to three days including delivery of results. After dialysis for 18 hours, plasma and buffer samples are prepared for analysis by liquid chromatography and mass spectrometry. Samples are generally tested in singlicates and quantified by LC/MSMS by using a 7-point calibration curve in plasma. The compounds are pooled together in plasma pools up to 10 compounds. Three reference compounds are used in each run, Propranolol, Metoprolol and Warfarin. Warfarin is used as a control in each pool and Propranolol and Metoprolol are placed randomly in each run. An in-house Excel macro is used for preparation of files for the robot and the mass spectrometer and is also used for the calculations of fraction unbound (fu %) in plasma.
In the next data set the target is hERG potassium channel (Homo sapiens (Human), UniProt Q12809).
hERG potassium channel, sequence (Q12809 whole entry): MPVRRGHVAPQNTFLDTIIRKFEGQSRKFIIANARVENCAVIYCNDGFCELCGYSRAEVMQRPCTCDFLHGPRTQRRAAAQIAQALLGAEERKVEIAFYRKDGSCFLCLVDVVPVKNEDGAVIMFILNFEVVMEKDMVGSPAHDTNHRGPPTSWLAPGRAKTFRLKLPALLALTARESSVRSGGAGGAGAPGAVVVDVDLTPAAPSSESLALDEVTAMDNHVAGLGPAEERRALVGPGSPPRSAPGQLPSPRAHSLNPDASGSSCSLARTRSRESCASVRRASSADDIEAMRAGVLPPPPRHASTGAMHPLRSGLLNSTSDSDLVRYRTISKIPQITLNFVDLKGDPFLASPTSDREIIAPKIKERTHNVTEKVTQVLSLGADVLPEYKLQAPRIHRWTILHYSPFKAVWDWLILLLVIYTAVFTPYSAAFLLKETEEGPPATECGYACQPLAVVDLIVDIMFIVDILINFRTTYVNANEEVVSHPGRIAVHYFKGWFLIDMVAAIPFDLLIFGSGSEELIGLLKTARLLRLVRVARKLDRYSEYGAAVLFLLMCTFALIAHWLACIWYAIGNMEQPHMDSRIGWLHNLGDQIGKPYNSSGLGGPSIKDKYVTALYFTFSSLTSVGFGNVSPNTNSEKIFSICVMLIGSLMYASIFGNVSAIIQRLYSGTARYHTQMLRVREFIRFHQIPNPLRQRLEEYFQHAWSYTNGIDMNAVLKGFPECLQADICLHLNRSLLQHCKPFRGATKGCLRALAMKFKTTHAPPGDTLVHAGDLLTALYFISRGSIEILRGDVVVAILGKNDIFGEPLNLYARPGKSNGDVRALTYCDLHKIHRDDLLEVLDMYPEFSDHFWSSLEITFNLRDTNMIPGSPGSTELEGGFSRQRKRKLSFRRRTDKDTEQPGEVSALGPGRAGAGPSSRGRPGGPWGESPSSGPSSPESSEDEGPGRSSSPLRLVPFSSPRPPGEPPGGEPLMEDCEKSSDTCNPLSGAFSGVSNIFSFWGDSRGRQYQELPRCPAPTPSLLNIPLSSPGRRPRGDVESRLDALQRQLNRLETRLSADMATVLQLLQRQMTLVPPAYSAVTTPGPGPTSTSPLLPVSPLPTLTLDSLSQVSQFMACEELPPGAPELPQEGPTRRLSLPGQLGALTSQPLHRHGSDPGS

Converted amounts (≈) assume the structure as drawn. Bounds are passed on as bounds.

What is called IC50 is the concentration at which inhibition is half-maximal. For orientation: logD means lipophilicity at a set pH, counting ionised and neutral species. As a reminder, the solubility is the concentration that dissolves in the medium under given conditions. Low readings indicate a poorly soluble substance, high ones a readily soluble substance.

Estrogen Receptor (ERα) in MCF-7 cells, sequence (P03372 whole entry): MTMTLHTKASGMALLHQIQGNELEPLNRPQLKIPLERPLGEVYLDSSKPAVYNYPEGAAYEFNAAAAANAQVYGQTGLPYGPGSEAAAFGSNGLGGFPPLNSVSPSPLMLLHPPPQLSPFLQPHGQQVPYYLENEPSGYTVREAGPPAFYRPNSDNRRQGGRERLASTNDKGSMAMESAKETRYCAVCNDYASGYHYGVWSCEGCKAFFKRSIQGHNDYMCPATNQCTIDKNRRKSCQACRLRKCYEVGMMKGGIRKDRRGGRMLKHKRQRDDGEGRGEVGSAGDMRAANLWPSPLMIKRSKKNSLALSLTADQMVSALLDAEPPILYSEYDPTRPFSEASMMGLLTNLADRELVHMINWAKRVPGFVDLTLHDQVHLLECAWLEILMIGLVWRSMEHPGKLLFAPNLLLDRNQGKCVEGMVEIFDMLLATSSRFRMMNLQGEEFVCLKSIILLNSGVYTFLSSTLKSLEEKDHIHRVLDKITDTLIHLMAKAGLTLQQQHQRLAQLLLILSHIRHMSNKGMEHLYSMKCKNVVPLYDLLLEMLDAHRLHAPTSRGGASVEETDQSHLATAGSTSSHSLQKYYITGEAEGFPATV
recombinant human Estrogen Receptor alpha ligand binding domain (ER alpha-LBD (GST)), sequence (P03372 307-554): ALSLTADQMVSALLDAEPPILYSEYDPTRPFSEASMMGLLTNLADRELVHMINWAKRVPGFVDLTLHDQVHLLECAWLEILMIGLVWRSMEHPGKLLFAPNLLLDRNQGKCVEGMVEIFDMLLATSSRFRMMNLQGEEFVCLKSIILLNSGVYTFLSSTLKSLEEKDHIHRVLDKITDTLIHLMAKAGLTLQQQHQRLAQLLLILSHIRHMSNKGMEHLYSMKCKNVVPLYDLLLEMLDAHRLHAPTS

On to `COc1ccc(OCCNCCCF)cc1[C@@H]1c2[nH]c3ccccc3c2C[C@@H](C)N1C[C@H](C)C(=O)O` [Example 53, (S)-3-((1R,3R)-1-(5-(2-((3-fluoropropyl)amino)ethoxy)-2-methoxyphenyl)-3-methyl-1,3,4,9-tetrahydro-2H-pyrido[3,4-b]indol-2-yl)-2-methylpropanoic acid], for which the results for the IC50 (in data set [1]; at hERG potassium channel) were 150 nM and > 40000 nM, respectively. The “% downregulation (in brackets)” value in data set [2] was “— (40%)”. The log distribution coefficient (logD) in data set [3] stood at 0.1. Besides, the solubility at 24 h in data set [4] is > 1000 µM. Besides, the “Human plasma protein binding (% free)” value in data set [5] was 80 % free.

In the case of `C[C@@H]1Cc2c([nH]c3ccccc23)[C@@H](c2c(F)ccc(OCCNCCCF)c2Cl)N1CC(F)(F)CO` [Example 85, 3-((1R,3R)-1-(2-chloro-6-fluoro-3-(2-((3-fluoropropyl)amino)ethoxy)phenyl)-3-methyl-1,3,4,9-tetrahydro-2H-pyrido[3,4-b]indol-2-yl)-2,2-difluoropropan-1-ol], the IC50 in data set [1] came out at 1.3 nM; in data set [2], 0.089 nM; against hERG potassium channel it was 4200 nM. In addition, in data set [3], the logD amounted to 3.1. In data set [4], this compound had a solubility at 24 h of 224 µM (≈ 118 µg/mL). The “Human plasma protein binding (% free)” value in data set [5] is listed as 1.0 % free.

As for `Cc1ncc(OCCNCCCF)cc1[C@@H]1c2[nH]c3ccccc3c2C[C@@H](C)N1CC(F)(F)F` [Example 37, 3-fluoro-N-(2-((6-methyl-5-((1R,3R)-3-methyl-2-(2,2,2-trifluoroethyl)-2,3,4,9-tetrahydro-1H-pyrido[3,4-b]indol-1-yl)pyridin-3-yl)oxy)ethyl)propan-1-amine], the IC50 in data set [1] is 12 nM; in data set [2] it was 35 nM; at hERG potassium channel, 3500 nM. Moreover, the logD in data set [3] is 3.6. Also, the solubility at 24 h in data set [4] was 434 µM (≈ 208 µg/mL). For the same compound, the “Human plasma protein binding (% free)” value in data set [5] is on record as 2.3 % free.

Regarding `Cc1ccc2[nH]c3c(c2c1)C[C@@H](C)N(CC(F)(F)CO)[C@@H]3c1c(F)cnc(OCCNCCCF)c1F` [Example 66, 3-((1R,3R)-1-(3,5-difluoro-2-(2-((3-fluoropropyl)amino)ethoxy)pyridin-4-yl)-3,6-dimethyl-1,3,4,9-tetrahydro-2H-pyrido[3,4-b]indol-2-yl)-2,2-difluoropropan-1-ol], the IC50 stood at 0.71 nM in data set [1], 0.34 nM in data set [2] and 5400 nM at hERG potassium channel. This compound also yielded a logD in data set [3] of 3. In data set [4], this compound returned a solubility at 24 h of 441 µM (≈ 232 µg/mL). Besides, the “Human plasma protein binding (% free)” value in data set [5] was 1.3 % free.

Consider `Cc1ccc(OCCNCCCF)c(C)c1[C@@H]1c2[nH]c3ccccc3c2C[C@@H](C)N1CC(F)(F)F` [Example 79, N-(2-(2,4-dimethyl-3-((1R,3R)-3-methyl-2-(2,2,2-trifluoroethyl)-2,3,4,9-tetrahydro-1H-pyrido[3,4-b]indol-1-yl)phenoxy)ethyl)-3-fluoropropan-1-amine], for which the IC50 in data set [1] was determined as 1.4 nM; in data set [2], 0.16 nM; at hERG potassium channel, 10000 nM. In data set [3], this compound displayed a log distribution coefficient (logD) of 4.8. For the same compound, in data set [4], the solubility at 24 h is 3.9 µM (≈ 1.92 µg/mL). Moreover, in data set [5], the “Human plasma protein binding (% free)” value is given as <0.4 % free.

As for `C[C@@H]1Cc2c([nH]c3ccccc23)[C@@H](c2ccnc(OCCNCCCF)c2)N1CC(F)(F)F` [Example 102, 3-fluoro-N-(2-((4-((1R,3R)-3-methyl-2-(2,2,2-trifluoroethyl)-2,3,4,9-tetrahydro-1H-pyrido[3,4-b]indol-1-yl)pyridin-2-yl)oxy)ethyl)propan-1-amine], the IC50 stood at 2 nM in data set [1], 2.9 nM in data set [2] and 7200 nM at hERG potassium channel. Besides, the logD in data set [3] was found to be 3.8. Moreover, the solubility at 24 h in data set [4] came out at 251 µM (≈ 117 µg/mL). Further, the “Human plasma protein binding (% free)” value in data set [5] is given as 1.4 % free.

`COc1c(F)cc(OCCNCCCF)cc1[C@@H]1c2[nH]c3ccccc3c2C[C@@H](C)N1CC(F)(F)F` [Example 27, 3-fluoro-N-(2-(3-fluoro-4-methoxy-5-((1R,3R)-3-methyl-2-(2,2,2-trifluoroethyl)-2,3,4,9-tetrahydro-1H-pyrido[3,4-b]indol-1-yl)phenoxy)ethyl)propan-1-amine]: the IC50 in data set [1] amounted to 2.7 nM; in data set [2], 1.6 nM; against hERG potassium channel, 4800 nM. In data set [3], this compound had a logD of 4.2. The solubility at 24 h in data set [4] was found to be 6 µM (≈ 3.07 µg/mL). In addition, in data set [5], the “Human plasma protein binding (% free)” value is recorded as 0.42 % free.

On to `COc1ccc(O[C@H](C)CNCCCF)cc1[C@@H]1c2[nH]c3ccccc3c2C[C@@H](C)N1CC(F)(F)CO` [Example 47, 2,2-difluoro-3-((1R,3R)-1-(5-(((R)-1-((3-fluoropropyl)amino)propan-2-yl)oxy)-2-methoxyphenyl)-3-methyl-1,3,4,9-tetrahydro-2H-pyrido[3,4-b]indol-2-yl)propan-1-ol], for which the IC50 in data set [1] amounted to 2.5 nM; in data set [2], 11 nM; on hERG potassium channel, 3200 nM. Further, in data set [2], the “% downregulation (in brackets)” value amounted to 81%. In data set [3], this compound showed a logD of 2.7. In data set [4], this compound showed a solubility at 24 h of 488 µM (≈ 254 µg/mL). Besides, in data set [5], the “Human plasma protein binding (% free)” value worked out at 6.1 % free.

Turning to `Cc1c(OCCN(C)CCCF)ncc(F)c1[C@@H]1c2[nH]c3ccccc3c2C[C@@H](C)N1C(C)CC(=O)O` (single isomer, unassigned) [Example 158], the IC50 in data set [1] is 1.5 nM; in data set [2] it was 1 nM; at hERG potassium channel, > 40000 nM. The same compound showed a logD in data set [3] of 1.8. In addition, the solubility at 24 h in data set [4] is > 1000 µM. Also, in data set [5], the “Human plasma protein binding (% free)” value is listed as 21 % free.

As to `Cc1c(OCCNCCCF)ncnc1[C@@H]1c2[nH]c3ccccc3c2C[C@@H](C)N1CC(F)(F)F` [Example 114, 3-fluoro-N-(2-((5-methyl-6-((1S,3R)-3-methyl-2-(2,2,2-trifluoroethyl)-2,3,4,9-tetrahydro-1H-pyrido[3,4-b]indol-1-yl)pyrimidin-4-yl)oxy)ethyl)propan-1-amine], the IC50 is 0.74 nM in data set [1], 0.2 nM in data set [2] and 5900 nM at hERG potassium channel. The same compound returned a logD in data set [3] of 3.3. Further, in data set [4], the solubility at 24 h came out at 276 µM (≈ 132 µg/mL). For the same compound, the “Human plasma protein binding (% free)” value in data set [5] worked out at 1.7 % free.

Regarding `COc1ccc(OCCNCCCF)c(F)c1[C@@H]1c2[nH]c3ccccc3c2C[C@@H](C)N1CC(F)(F)CO` [Example 81, 2,2-difluoro-3-((1R,3R)-1-(2-fluoro-3-(2-((3-fluoropropyl)amino)ethoxy)-6-methoxyphenyl)-3-methyl-1,3,4,9-tetrahydro-2H-pyrido[3,4-b]indol-2-yl)propan-1-ol], the IC50 in data set [1] is > 110 nM; in data set [2], 0.17 nM; on hERG potassium channel it was 3900 nM. Further, the logD in data set [3] amounted to 2.6. Moreover, the solubility at 24 h in data set [4] amounted to 736 µM (≈ 385 µg/mL). Moreover, the “Human plasma protein binding (% free)” value in data set [5] is given as 2.9 % free.

In the case of `C[C@@H]1Cc2c([nH]c3ccccc23)[C@@H](c2cccc(OCCNCCCF)n2)N1CC(F)(F)F` [Example 34, 3-fluoro-N-(2-((6-((1S,3R)-3-methyl-2-(2,2,2-trifluoroethyl)-2,3,4,9-tetrahydro-1H-pyrido[3,4-b]indol-1-yl)pyridin-2-yl)oxy)ethyl)propan-1-amine], the IC50 in data set [1] was 190 nM; against hERG potassium channel, 3400 nM. Moreover, the “% downregulation (in brackets)” value in data set [2] is “— (41%)”. In data set [3], this compound displayed a logD of 3.7. The same compound yielded a solubility at 24 h in data set [4] of 151 µM (≈ 70.1 µg/mL). In addition, the “Human plasma protein binding (% free)” value in data set [5] stood at 2.2 % free.

With `C[C@@H]1Cc2c([nH]c3ccccc23)[C@@](C)(c2cccc(OCCNCCCF)c2)N1CC(F)(F)F` [Example 75, N-(2-(3-((1R,3R)-1,3-dimethyl-2-(2,2,2-trifluoroethyl)-2,3,4,9-tetrahydro-1H-pyrido[3,4-b]indol-1-yl)phenoxy)ethyl)-3-fluoropropan-1-amine], the figures for the IC50 (in data set [1]; in data set [2]; against hERG potassium channel) were 52 nM, 58 nM and 7700 nM, respectively. Moreover, the logD in data set [3] is 4.5. The same compound returned a solubility at 24 h in data set [4] of 0.9 µM (≈ 0.43 µg/mL). Moreover, the “Human plasma protein binding (% free)” value in data set [5] came out at 0.08 % free.

With `Cc1c(NCCNCCCF)ccnc1[C@@H]1c2[nH]c3ccccc3c2C[C@@H](C)N1CC(F)(F)F` [Example 95, N1-(3-fluoropropyl)-N2-(3-methyl-2-((1S,3R)-3-methyl-2-(2,2,2-trifluoroethyl)-2,3,4,9-tetrahydro-1H-pyrido[3,4-b]indol-1-yl)pyridin-4-yl)ethane-1,2-diamine], the values for the IC50 (in data set [1]; in data set [2]; against hERG potassium channel) were 5.6 nM, 3.3 nM and 7200 nM, respectively. For the same compound, the logD in data set [3] was determined as 2.5. The same compound registered a solubility at 24 h in data set [4] of 869 µM (≈ 415 µg/mL). In addition, in data set [5], the “Human plasma protein binding (% free)” value was 4.6 % free.

Regarding `COc1c(F)cc(OCCNCCCF)c(F)c1[C@@H]1c2[nH]c3ccccc3c2C[C@@H](C)N1CC(F)(F)F` [Example 29, N-(2-(2,5-difluoro-4-methoxy-3-((1R,3R)-3-methyl-2-(2,2,2-trifluoroethyl)-2,3,4,9-tetrahydro-1H-pyrido[3,4-b]indol-1-yl)phenoxy)ethyl)-3-fluoropropan-1-amine], the IC50 was found to be 2 nM in data set [1], 0.44 nM in data set [2] and 5100 nM against hERG potassium channel. Further, the logD in data set [3] is > 3.2. The solubility at 24 h in data set [4] is 58 µM (≈ 30.7 µg/mL). Further, in data set [5], the “Human plasma protein binding (% free)” value is given as <3.2 % free.

With `COc1ncc(OCCNCCCF)cc1[C@@H]1c2[nH]c3ccccc3c2C[C@@H](C)N1CC(F)(F)F` [Example 36, 3-fluoro-N-(2-((6-methoxy-5-((1R,3R)-3-methyl-2-(2,2,2-trifluoroethyl)-2,3,4,9-tetrahydro-1H-pyrido[3,4-b]indol-1-yl)pyridin-3-yl)oxy)ethyl)propan-1-amine], the IC50 was found to be 2.6 nM in data set [1], 0.35 nM in data set [2] and 8700 nM against hERG potassium channel. The compound also registered a pH-dependent lipophilicity (logD) in data set [3] of 3.5. Further, in data set [4], the solubility at 24 h stood at 183 µM (≈ 90.5 µg/mL). The “Human plasma protein binding (% free)” value in data set [5] amounted to 2 % free.
